Reference: patent US7507716B2, “Method for treating pain with prolactin antagonists” (Board of Regents, The University of Texas System, priority 2005, dated 2009)

Assays:
PRL-R = experiment: Western blot of PRL-R isoforms in TG of OVX rats; type: in vivo, rat; settings: TG of OVX rats, 2, 20 or 80 μg/kg s.c. daily for 10 days
Source text: There are two isoforms of the rat PRL receptor (PRL-R) that differ in the length of their cytoplasmic tail and are therefore termed the long and short isoforms. […] Moreover, the differential expression of these receptors is regulated by estrogen in certain tissues (Sakaguchi et al., 1994; Pi et al., 2003). To determine whether estrogen regulates the expression of the PRL-R in the female TG, protein extracts prepared from TG of OVX rats and subjected to Western blot analysis using an anti-PRL-R antibody that recognizes both the long and the short PRL-R isoforms. FIG. 3A depicts a representative immunoblot of this experiment. The antibody recognized two bands migrating at approximately 100 KDa and 40 KDa corresponding to the long and short PRL-R isoforms respectively. Blots were stripped and probed with an antibody against beta-actin to normalize for loading differences. […] The data are presented as mean±SEM (n=4/group, *=p<0.05 and **=p<0.01; one-way ANOVA with Bonferroni's post hoc test).
At the end of the 10th day, animals were used for behavioral experiments or sacrificed by decapitation and the TG of each individual animal were harvested. Harvested tissue was used for RNA isolation, total protein isolation, or for preparing primary cultures of TG neurons. […]

TG neurons = experiment: Capsaicin-evoked iCGRP release from cultured TG neurons (RIA); type: cell-based, rat; settings: PRL 40 nM, capsaicin 50 nM
Protocol: Release of iCGRP from cultured neurons was measured by radioimmunoassay. Data are presented as mean % of vehicle±SEM (n=4/group, *=P<0.05 and **=P<0.01 vs. iCGRP levels of each control group; two-tailed unpaired T test).
Rat trigeminal ganglia (TG) primary cultures: The TG from ovariectomized or intact female rats were quickly removed after decapitation and neuronal cultures were prepared as previously described (Fehrenbacher et al., 2005; Patwardhan et al., 2005). The trypsin treatment was omitted in TG cultures prepared for electrophysiological recording and Ca^2+ imaging. Cells were plated on 24 well Poly-D-Lysine coated plates (for iCGRP experiments), 6 well Poly-D-Lysine plates (for PRL release experiments), Poly-D-Lysine/laminin-coated coverslips (for single cell studies) or 10 cm plates (for phosphorylation experiments), respectively. The TG cultures were maintained at 37° C. and 5% CO2. […] The media were replaced at the end of 24 h and then 48 h later.
CGRP release assay: All culture experiments were performed on day 5 at 37° C. using modified Hanks (Gibco) buffer (10.9 mM HEPES, 4.2 mM sodium bicarbonate, 10 mM dextrose and 0.1% bovine serum albumin were added to 1× Hanks). After two initial washes, a 15 min baseline sample was collected. […]

Molecule | expression of the long form of PRL-R (PRL-R) | expression of the short form of the PRL-R (PRL-R) | PRL sensitization of capsaicin-evoked iCGRP release (TG neurons; OVX TG neurons cultured 5 days with 50 nM estradiol) | PRL sensitization of capsaicin-evoked iCGRP release (TG neurons; OVX TG neurons cultured in the absence of E2)
C[C@]12CC[C@@H]3c4ccc(O)cc4CC[C@H]3[C@@H]1CC[C@@H]2O [estradiol, 17-β-estradiol] | increases expression of the long form of PRL-R in the TG of OVX rats in a dose-dependent manner | does not appear to significantly affect expression of the short form of the PRL-R |  | 
PRL: Ovine PRL [oPRL-21, BIO] provided by NHPP; prolactin polypeptide hormone (protein, UniProt P01240 31-229, looked up) Prolactin: TPVCPNGPGNCQVSLRDLFDRAVMVSHYIHNLSSEMFNEFDKRYAQGKGFITMALNSCHTSSLPTPEDKEQAQQTHHEVLMSLILGLLRSWNDPLYHLVTEVRGMKGVPDAILSRAIEIEEENKRLLEGMEMIFGQVIPGAKETEPYPVWSGLPSLQTKDEDARHSAFYNLLHCLRRDSSKIDTYLKLLNCRIIYNNNC |  |  | significantly restored | no effect was observed
